Toxic doses and inconclusive results are not listed. Rule for the calls: active = survival T/C of 150% or more; inactive = T/C below 125% in these data.
System: P388 leukemia ip, CD2F1 mice, survival T/C
Assay: NCI In Vivo Anticancer Drug Screen. Data for tumor model P388 Leukemia (intraperitoneal) in CD2F1 (CDF1) mice
Settings: endpoint: median survival time, higher = longer survival
Method in brief: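 Mice carrying the transplanted tumor received test compound or vehicle. Survival was recorded in each group, and the value is the treated-group measurement divided by that of the vehicle-treated control group.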

[1] = dose: 60.0 mg/kg/injection, schedule: Q01DX005 (ip), vehicle: Klucel (hydroxypropylcellulose) (HPC)
[2] = dose: 120.0 mg/kg/injection, schedule: Q01DX005 (ip), vehicle: Klucel (hydroxypropylcellulose) (HPC)
[3] = dose: 60.0 mg/kg/injection, schedule: Q01DX005 (ip), vehicle: saline with Tween-80
[4] = dose: 120.0 mg/kg/injection, schedule: Q01DX005 (ip), vehicle: saline with Tween-80
[5] = dose: 240.0 mg/kg/injection, schedule: Q01DX005 (ip), vehicle: saline with Tween-80

Measured: T/C

N/C(=C\c1cnc2ccccc2n1)c1ccccc1Cl
inactive: [1] 91 % of control | [2] 89 % of control

CC1(C)CC(=O)OC/C=C\CC(Cc2ccccc2)C(=O)C1 (configuration not stated)
inactive: dose: 100.0 mg/kg/injection, schedule: Q04DX003 (ip), vehicle: saline 104 % of control | dose: 200.0 mg/kg/injection, schedule: Q04DX003 (ip), vehicle: saline 97 % of control | dose: 400.0 mg/kg/injection, schedule: Q04DX003 (ip), vehicle: saline 96 % of control

O=C(O)C1=NN(c2ccc(S(=O)(=O)O)cc2)C(=O)C1N=Nc1ccc(S(=O)(=O)O)cc1 (configuration not stated)
inactive: dose: 50.0 mg/kg/injection, schedule: Q01DX009 (ip), vehicle: saline 95 % of control | dose: 100.0 mg/kg/injection, schedule: Q01DX009 (ip), vehicle: saline 100 % of control | dose: 200.0 mg/kg/injection, schedule: Q01DX009 (ip), vehicle: saline 100 % of control | dose: 400.0 mg/kg/injection, schedule: Q01DX009 (ip), vehicle: saline 95 % of control

Cc1cc2c(cc1C)NC1C(=O)C(c3ccc(Cl)c(Cl)c3)OC1=N2 (configuration not stated)
inactive: dose: 30.0 mg/kg/injection, schedule: Q01DX005 (ip), vehicle: Klucel (hydroxypropylcellulose) (HPC) 91 % of control | [1] 91 % of control | [2] 93 % of control | dose: 240.0 mg/kg/injection, schedule: Q01DX005 (ip), vehicle: Klucel (hydroxypropylcellulose) (HPC) 86 % of control

Cc1ccc(-c2cssc2=S)cc1
inactive: dose: 25.0 mg/kg/injection, schedule: Q01DX009 (ip), vehicle: saline with Tween-80 96 % of control | dose: 50.0 mg/kg/injection, schedule: Q01DX009 (ip), vehicle: saline with Tween-80 95 % of control | dose: 100.0 mg/kg/injection, schedule: Q01DX009 (ip), vehicle: saline with Tween-80 92 % of control | dose: 200.0 mg/kg/injection, schedule: Q01DX009 (ip), vehicle: saline with Tween-80 90 % of control

CN(C)c1ccc(CCc2nc(N)nc3nccnc23)cc1
inactive: dose: 50.0 mg/kg/injection, schedule: Q04DX003 (ip), vehicle: Klucel (hydroxypropylcellulose) (HPC) 96 % of control | dose: 100.0 mg/kg/injection, schedule: Q04DX003 (ip), vehicle: Klucel (hydroxypropylcellulose) (HPC) 90 % of control | dose: 200.0 mg/kg/injection, schedule: Q04DX003 (ip), vehicle: Klucel (hydroxypropylcellulose) (HPC) 96 % of control | dose: 400.0 mg/kg/injection, schedule: Q04DX003 (ip), vehicle: Klucel (hydroxypropylcellulose) (HPC) 99 % of control

CCO/C=C1/N=C(c2cc(Cl)cc([N+](=O)[O-])c2)OC1=O
inactive: [3] 101 % of control | [4] 101 % of control | [5] 93 % of control

CCOC(=O)c1cnc2ccc(C3CCCCC3)cc2c1Nc1ccc2c(c1)OCO2
inactive: [3] 99 % of control | [4] 91 % of control | [5] 91 % of control

COc1cccc(C2CC(C)(O)Oc3cc4c(cc32)OCO4)c1 (configuration not stated)
inactive: [1] 93 % of control

CC(=O)OC1=CC(OC(C)=O)C2C(=O)C3=C(C(=O)c4ccccc4C3=O)C(=O)C2C1 (configuration not stated)
inactive: dose: 100.0 mg/kg/injection, schedule: Q01DX001 (ip), vehicle: Klucel (hydroxypropylcellulose) (HPC) 105 % of control | dose: 200.0 mg/kg/injection, schedule: Q01DX001 (ip), vehicle: Klucel (hydroxypropylcellulose) (HPC) 102 % of control | dose: 400.0 mg/kg/injection, schedule: Q01DX001 (ip), vehicle: Klucel (hydroxypropylcellulose) (HPC) 93 % of control

CCN(CC)[P+](c1cc(OC)ccc1OC)(N(CC)CC)N(CC)CC
inactive: dose: 1.56 mg/kg/injection, schedule: Q01DX009 (ip), vehicle: Klucel (hydroxypropylcellulose) (HPC) 121 % of control | dose: 3.13 mg/kg/injection, schedule: Q01DX009 (ip), vehicle: Klucel (hydroxypropylcellulose) (HPC) 106 % of control | dose: 25.0 mg/kg/injection, schedule: Q01DX009 (ip), vehicle: Klucel (hydroxypropylcellulose) (HPC) 91 % of control

COc1ccc(C(Nc2ccccn2)c2cc(C(C)(C)C)cc(C(C)(C)C)c2O)cc1 (configuration not stated)
inactive: dose: 50.0 mg/kg/injection, schedule: Q01DX005 (ip), vehicle: distilled water + alcohol 105 % of control | dose: 100.0 mg/kg/injection, schedule: Q01DX005 (ip), vehicle: distilled water + alcohol 100 % of control | dose: 200.0 mg/kg/injection, schedule: Q01DX005 (ip), vehicle: distilled water + alcohol 109 % of control

— PubChem BioAssay AID330 (DTP/NCI, 2004)
